Experimental data published in US9173869B2, “Mediators of hedgehog signaling pathways, compositions and uses related thereto” (CURIS, INC., priority 1999, dated 2015).

The compounds below were run on ptc-1 lacZ reporter gene expression in lung explants (assay: E12.5 ptc-1 (d11) lacZ lung explant culture, lacZ staining). Conditions: lung explants grown 48 hrs, versus untreated control.
Assay type: cell-based, mouse
Protocol: In yet another experiment, E12.5 old ptc-1 (d11) lacZ lungs were harvested and transgenic embryos identified by lacZ detection using tails. Lung explants were grown submerged in mouse explant medium (DMEM based, additives optimized for the culture of mouse lungs) for 48 hrs, fixed in lacZ fixative, rinsed and stained for lacZ O/N at 37° C. Control tissue was untreated, while test tissue was treated with 11. Results are depicted in FIG. 34: (A) Untreated control. Strong lacZ expression can be observed in distal and proximal mesenchyme.

For `CC(c1nc2ccccc2c(=O)n1-c1ccc(F)cc1)N(C)C(=O)Nc1cccc(C(F)(F)F)c1` (stereo not drawn) [Compound 11, 2-{1′-[N-(3″-trifluoromethylphenylcarbamoyl)-N-methyl-amino]ethyl}-3-(4′″fluorophenyl)-quinazolin-4-one], the “lacZ reporter gene expression” value was “significantly decreased reporter gene expression”.

These compounds were tested on murine BCC lesions (assay: Cultured skin punches with BCC lesions from UV-irradiated Ptc-knockout heterozygote mouse (X-gal staining)). Conditions: 10 μM versus 5 μM in culture medium, 6 days.
Assay type: cell-based
Protocol: Mouse 456 is a Ptc-knockout heterozygote that received UV irradiation for 6 months. The mouse developed many small BCC lesions, which were blue after X-gal staining. The mouse was sacrificed and the skin was excised with a 2 mm skin punch. Those skin punches were then cultured for 6 days. […] The effect was more obvious when 10 μM of 11 was added to the culture medium instead of 5 μM of 11.

`CC(c1nc2ccccc2c(=O)n1-c1ccc(F)cc1)N(C)C(=O)Nc1cccc(C(F)(F)F)c1` (stereo not drawn) [Compound 11, 2-{1′-[N-(3″-trifluoromethylphenylcarbamoyl)-N-methyl-amino]ethyl}-3-(4′″fluorophenyl)-quinazolin-4-one] was tested, and the “effect on BCC lesions at 10 μM instead of 5 μM” value was “more obvious”.

Same assay, conditions: skin punches of mouse 456 cultured for 6 days, compared to vehicle (DMSO), 5 or 10 μM

`CC(c1nc2ccccc2c(=O)n1-c1ccc(F)cc1)N(C)C(=O)Nc1cccc(C(F)(F)F)c1` (stereo not drawn) [Compound 11, 2-{1′-[N-(3″-trifluoromethylphenylcarbamoyl)-N-methyl-amino]ethyl}-3-(4′″fluorophenyl)-quinazolin-4-one] was tested, and the “number and size of BCC lesions (blue spots)” value was “can decrease the number and size of BCC lesions”.

Each compound was assayed on gli-1 mRNA in ptc-null cells (assay: Ptc-null assay (RT-PCR / quantitative real-time PCR of gli-1 mRNA)). Conditions: ptc-null cells cultured 3 days, 1 μM of test compound, compared with vehicle.
Assay type: cell-based, mouse
Protocol: Ptc-null cells were cultured for 3 days in the presence of vehicle; jervine, a known Patched pathway antagonist (i) used here as a positive control; or 1 μM of a test compound. Total ribonucleic acid (RNA) was isolated from the cells and used for reverse transcriptase-polymerase chain reaction (RT-PCR). […] The gli-1 and actin mRNA samples were then loaded on 1.5% agarose gel and were detected by staining with ethidium bromide. The same samples were analyzed by the quantitative real-time polymerase chain reaction method to quantify the levels of gli-1 mRNA.

For `CC(c1nc2ccccc2c(=O)n1-c1ccc(F)cc1)N(C)C(=O)Nc1cccc(C(F)(F)F)c1` (stereo not drawn) [Compound 11, 2-{1′-[N-(3″-trifluoromethylphenylcarbamoyl)-N-methyl-amino]ethyl}-3-(4′″fluorophenyl)-quinazolin-4-one], the “expression of gli-1” value was “no significant decrease”.
With `CCCN(CCC(=O)NC1CCCc2ccccc21)C(=O)c1cc(OC)cc(OC)c1` (stereo not drawn) [Compound 47] the “expression of gli-1” value was “no significant decrease”.
In the case of `CCC(C)N(CCC(=O)NC1CCCc2ccccc21)C(=O)c1cccc2ccccc12` (stereo not drawn) [Compound 48], the “expression of gli-1” value is reported as “no significant decrease”.
`CCC(C)N(CCC(=O)NC1CCCc2ccccc21)C(=O)COc1ccc(Cl)cc1` (stereo not drawn) [Compound 49] was tested, and the “expression of gli-1” value was “no significant decrease”.

Same assay, conditions: ptc-null cells cultured 3 days, positive control, compared with vehicle

For `CC1=C2C(=O)[C@H]3[C@@H](CC=C4C[C@@H](O)CC[C@@]43C)[C@@H]2CC[C@]12O[C@@H]1C[C@H](C)CN[C@H]1[C@H]2C` [jervine, reference compound], the “expression of gli-1 mRNA” value was “significantly decreased”.

The compounds below were run on Hedgehog pathway (Shh-induced Gli-transcription activity) in 10T1/2(s12) cells (assay: Gli-Luc assay (high-throughput screening, Hedgehog-responsive luciferase reporter)). Conditions: Gli-Luc response, OCT-SHH 0.3 μg/ml, about 24 h.
Assay type: cell-based
Protocol: Compounds to be tested are dissolved in DMSO to a concentration of 10 mM, and stored at −20° C. To activate the Hedgehog pathway in the assay cells, an octylated (lipid-modified) form of the N-terminal fragment of the Sonic Hedgehog protein (OCT-SHH) is used. This N-terminal SHH fragment is produced bacterially. The octylation involves reaction of the N-terminal fragment, via its amino-terminal cysteine moiety, with octyl maleimide.
Compounds may be tested in the “Gli-Luc” assay below, using the cell line 10T(s12), wherein the cells contain a Hedgehog-responsive reporter construct utilizing Luciferase as the reporter gene. In this way, Hedgehog pathway signaling activity can be measured via the Gli-Luc response.
10t1/2(s12) cells are plated in a 96-well micro-titer plate (MTP) at 20,000 cells/well in full medium [DMEM with 10% FBS]. Then plates are placed in the incubator for incubation overnight (O/N), at 37° C. and 5% CO2. After 24 h, the medium is replaced with Luciferase-assay medium (DMEM with 0.5% FBS). Compounds are thawed and diluted in assay medium at 3:1000 (about 300-fold) resulting in a starting concentration of about 30 μM.
Subsequently, 150 μl of each 30 μM sample is added to the first wells (in triplicate). The MTP samples are then diluted at 3-fold dilutions to a total of seven wells, ultimately resulting in a regiment of seven dilutions in triplicate, for each compound. Next, the protein ligand OCT-SHH is diluted in Luciferase-assay medium and added to each well at a final concentration of 0.3 μg/ml. Plates are then returned to the incubator for further incubation O/N, at 37° C. and 5% CO2. After about 24 h, plates are removed from the incubator and the medium is aspirated/discarded. Wells are washed once with assay buffer [PBS+1 mM Mg^2+ and 1 mM Ca^2+]. Then 50 μl of assay buffer is added to each well. The Luciferase assay reagent is prepared as described by the vendor (LucLite kit from Packard), and 50 μl is added to each well. Plates are incubated at room temperature (RT) for about 30 minutes after which the signals are read, again at RT, on a Topcount (Packard).

`O=C(NCc1nc2ccccc2c(=O)n1-c1ccc(F)cc1)Nc1ccc(Cl)c(C(F)(F)F)c1` [Compound 5, 1-(4-Chloro-3-trifluoromethyl-phenyl)-3-[3-(4-fluoro-phenyl)-4-oxo-3,4-dihydro-quinazolin-2-ylmethyl]-urea] and `O=C(NCc1nc2ccccc2c(=O)n1-c1ccc(F)cc1)Nc1ccc(Cl)c(Cl)c1` [Compound 68] cannot be ordered by IC50: < 0.1 µM for the first, < 1 µM for the second.

`O=C(NCc1nc2ccccc2c(=O)n1-c1ccc(F)cc1)Nc1cc(Cl)nc(Cl)c1` [Compound 6, 1-(2,6-Dichloro-pyridin-4-yl)-3-[3-(4-fluoro-phenyl)-4-oxo-3,4-dihydro-quinazolin-2-ylmethyl]-urea] and `CC(c1nc2ccccc2c(=O)n1-c1ccc(F)cc1)N(C)C(=O)Nc1cc(Cl)nc(Cl)c1` (stereo not drawn) [Compound 58] cannot be ordered by IC50: < 0.5 µM for the first, < 5 µM for the second.

`CC(c1nc2ccccc2c(=O)n1-c1ccc(F)cc1)N(C)C(=O)Nc1cccc(C(F)(F)F)c1` (stereo not drawn) [Compound 11, 2-{1′-[N-(3″-trifluoromethylphenylcarbamoyl)-N-methyl-amino]ethyl}-3-(4′″fluorophenyl)-quinazolin-4-one] and `CC(c1nc2ccccc2c(=O)n1-c1ccc(F)cc1)N(C)C(=O)Nc1cccc(SC(F)(F)F)c1` (stereo not drawn) [Compound 52] cannot be ordered by IC50: < 5 µM for the first, < 1 µM for the second.

`CC(c1nc2ccccc2c(=O)n1-c1ccc(F)cc1)N(Cc1ccco1)C(=O)Nc1cccc(F)c1` (stereo not drawn) [Compound 31] and `CC(c1nc2ccccc2c(=O)n1-c1ccc(F)cc1)N(C)C(=O)Nc1cccc(F)c1` (stereo not drawn) [Compound 55] cannot be ordered by IC50: < 10 µM for the first, < 5 µM for the second.

`CC(c1nc2ccccc2c(=O)n1-c1ccc(F)cc1)N(C)C(=O)Nc1ccc([N+](=O)[O-])c(C(F)(F)F)c1` (stereo not drawn) [Compound 32] and `CC(c1nc2ccccc2c(=O)n1-c1ccc(F)cc1)N(C)C(=O)Nc1ccc(Cl)c(C(F)(F)F)c1` (stereo not drawn) [Compound 61] cannot be ordered by IC50: < 5 µM for the first, < 1 µM for the second.

`CCCN(C(=O)Nc1cccc(Cl)c1)C(C)c1nc2ccccc2c(=O)n1-c1ccc(F)cc1` (stereo not drawn) [Compound 34] and `CCCN(C(=O)Nc1cccc(OC)c1)C(C)c1nc2ccccc2c(=O)n1-c1ccc(F)cc1` (stereo not drawn) [Compound 38] cannot be ordered by IC50: < 5 µM for the first, < 5 µM for the second.

`CCCN(C(=O)Nc1cccc(C(F)(F)F)c1)C(C)c1nc2ccccc2c(=O)n1-c1ccc(F)cc1` (stereo not drawn) [Compound 36] and `CC(NC(=O)Nc1cccc(C(F)(F)F)c1)c1nc2ccccc2c(=O)n1-c1ccc(F)cc1` (stereo not drawn) [Compound 73] cannot be ordered by IC50: < 5 µM for the first, < 5 µM for the second.

`CCC(c1nc2ccccc2c(=O)n1-c1ccc(C)cc1)N(CCc1ccccc1)C(=O)CCCCF` (stereo not drawn) [Compound 39] and `CCCCc1ccc(C(=O)N(Cc2ccccc2)C(CC)c2nc3ccccc3c(=O)n2-c2ccc(C)cc2)cc1` (stereo not drawn) [Compound 40] cannot be ordered by IC50: < 5 µM for the first, < 10 µM for the second.

`CCCCCCCCC(=O)N(CCCCC)C(C)c1nc2ccccc2c(=O)n1-c1ccccc1` (stereo not drawn) [Compound 41] and `CCOC(=O)c1ccccc1NC(=O)N(C)C(C)c1nc2ccccc2c(=O)n1-c1ccc(F)cc1` (stereo not drawn) [Compound 63] cannot be ordered by IC50: < 10 µM for the first, < 10 µM for the second.

`CCC(=O)N1CCN(C(CC)c2nc3ccccc3c(=O)n2-c2ccc(C)cc2)C(C)C1` (stereo not drawn) [Compound 42] and `CC(c1nc2ccccc2c(=O)n1-c1ccc(F)cc1)N1CCN(C(=O)Nc2ccc(Cl)c(Cl)c2)CC1` (stereo not drawn) [Compound 43] cannot be ordered by IC50: < 5 µM for the first, < 10 µM for the second.

`O=C(NCc1nc2ccccc2c(=O)n1-c1ccc(F)cc1)Nc1cccc(C(F)(F)F)c1` [Compound 44] and `O=C(NCCCc1nc2ccccc2c(=O)n1-c1ccc(F)cc1)Nc1cccc(C(F)(F)F)c1` [Compound 74] cannot be ordered by IC50: < 1 µM for the first, < 5 µM for the second.

`CCC(c1nc2ccccc2c(=O)[nH]1)N1CCN(C(=O)Nc2ccc(Cl)c(Cl)c2)C(C)C1` (stereo not drawn) [Compound 45] and `CCC(c1nc2ccccc2c(=O)[nH]1)N1CCN(C(=O)c2ccc(-c3ccccc3)cc2)C(C)C1` (stereo not drawn) [Compound 46] cannot be ordered by IC50: < 5 µM for the first, < 0.5 µM for the second.

`CCCN(CCC(=O)NC1CCCc2ccccc21)C(=O)c1cc(OC)cc(OC)c1` (stereo not drawn) [Compound 47] and `CCC(C)N(CCC(=O)NC1CCCc2ccccc21)C(=O)COc1ccc(Cl)cc1` (stereo not drawn) [Compound 49] cannot be ordered by IC50: < 5 µM for the first, < 1 µM for the second.

`CCC(C)N(CCC(=O)NC1CCCc2ccccc21)C(=O)c1cccc2ccccc12` (stereo not drawn) [Compound 48] and `CCOOC(=O)c1cccc(NC(=O)N(C)C(C)c2nc3ccccc3c(=O)n2-c2ccc(F)cc2)c1` (stereo not drawn) [Compound 65] cannot be ordered by IC50: < 0.5 µM for the first, < 10 µM for the second.

`O=C(Cc1cccc(C(F)(F)F)c1)NCCc1nc2ccccc2c(=O)n1-c1ccc(F)cc1` [Compound 50] and `O=C(Nc1cccc(C(F)(F)F)c1)NC(c1nc2ccccc2c(=O)n1-c1ccc(F)cc1)C1CC1` (stereo not drawn) [Compound 75] cannot be ordered by IC50: < 1 µM for the first, < 5 µM for the second.

`CC(c1nc2ccccc2c(=O)n1-c1ccc(F)cc1)N(C)C(=O)Nc1cccc(C#N)c1` (stereo not drawn) [Compound 51] and `CC(C)c1cccc(NC(=O)N(C)C(C)c2nc3ccccc3c(=O)n2-c2ccc(F)cc2)c1` (stereo not drawn) [Compound 57] cannot be ordered by IC50: < 5 µM for the first, < 10 µM for the second.

`CC(c1nc2ccccc2c(=O)n1-c1ccc(F)cc1)N(C)C(=O)Nc1ccc(Cl)c(Cl)c1` (stereo not drawn) [Compound 53] and `CC(c1nc2ccccc2c(=O)n1-c1ccc(F)cc1)N(C)C(=O)Nc1ccc([N+](=O)[O-])c(Cl)c1` (stereo not drawn) [Compound 62] cannot be ordered by IC50: < 1 µM for the first, < 1 µM for the second.

`CC(c1nc2ccccc2c(=O)n1-c1ccc(F)cc1)N(C)C(=O)Nc1ccc(C(F)(F)F)cc1` (stereo not drawn) [Compound 54] and `CC(c1nc2ccccc2c(=O)n1-c1ccc(F)cc1)N(C)C(=O)Nc1ccc(SC(F)(F)F)cc1` (stereo not drawn) [Compound 60] cannot be ordered by IC50: < 5 µM for the first, < 5 µM for the second.

`CC(c1nc2ccccc2c(=O)n1-c1ccc(F)cc1)N(C)C(=O)Nc1ccc(-c2ccccc2)cc1` (stereo not drawn) [Compound 56] and `Cc1c(NC(=O)N(C)C(C)c2nc3ccccc3c(=O)n2-c2ccc(F)cc2)cccc1[N+](=O)[O-]` (stereo not drawn) [Compound 59] cannot be ordered by IC50: < 10 µM for the first, < 5 µM for the second.

`CC(c1nc2ccccc2c(=O)n1-c1ccc(F)cc1)N(C)C(=O)Nc1ccc([N+](=O)[O-])cc1Cl` (stereo not drawn) [Compound 64] and `CC(c1nc2ccccc2c(=O)n1-c1ccc(F)cc1)N(C)C(=O)Nc1ccc(Cl)cc1[N+](=O)[O-]` (stereo not drawn) [Compound 66] cannot be ordered by IC50: < 10 µM for the first, < 10 µM for the second.

`Cc1c(NC(=O)NCc2nc3ccccc3c(=O)n2-c2ccc(F)cc2)cccc1SC(F)(F)F` [Compound 67] and `COc1cccc(NC(=O)NCc2nc3ccccc3c(=O)n2-c2ccc(F)cc2)c1C` [Compound 71] cannot be ordered by IC50: < 5 µM for the first, < 10 µM for the second.

`O=C(NCc1nc2ccccc2c(=O)n1-c1ccc(F)cc1)Nc1ccc(Cl)c([N+](=O)[O-])c1` [Compound 69] was tested, and the IC50 was < 0.5 µM.
